Results reported in US20190167725A1, “COMPOSITION AND METHOD FOR IMPROVING EFFICACY OF STEM CELLS” (University-Industry Cooperation Group of Kyung Hee …, priority 2016, published 2019).

What was measured:
[1] = tested on: ST2 cells (mouse bone marrow-derived MSCs); settings: 10 mM, 12 hours, growth factor reduced Matrigel
Experimental: Then, the upper part of each insert was coated with 50 μL of growth factor reduced Matrigel (BD Bioscience). […] The lower chamber membrane was confirmed using a Nikon ECLIPSE TS 100 microscope.

[2] = tested on: ST2 cells (mouse bone marrow-derived MSCs); settings: 0 mM to 10 mM in lower chamber, 12 hours
Experimental: The cells were maintained in RPMI1640 medium (Invitrogen) containing 10% FBS, 1% penicillin, and streptomycin (Invitrogen). The cells were cultured to a confluence of 80%, recovered with 0.25% trypsin/EDTA (Invitrogen), and subcultured in a ratio of 1:3 to 1:4. The cells which underwent 5 to 8 subcultures were used in the experiment. The cells were maintained in a 37° C. incubator containing 5% CO2.
Millicell culture plate inserts with a pore size of 8 μm (EMD Millipore) were coated with type I collagen (0.5 μg/mL). The ST2 cells (2.5×10^4 cells) were suspended in normal growth medium and added into an upper chamber. After culturing the cells for 5 to 6 hours, the medium was replaced with DMEM medium containing 2% FBS and 1% penicillin and streptomycin.
After culturing for an additional 12 hours, each insert was fixed with 4% formaldehyde in the presence of PBS at room temperature for 10 minutes. The ST2 cells were stained with a hematoxylin solution for 30 minutes, and the cells remaining on the upper chamber membrane were removed using cotton swabs. The lower chamber membrane was confirmed using the Nikon ECLIPSE TS 100 microscope. The number of cells in each cell image was counted using Adobe Photoshop CS6.

[3] = tested on: human bone marrow-derived MSCs (hMSCs); settings: concentration series, serum-free DMEM
Description: The human bone marrow-derived MSCs (hMSCs) were obtained from Lonza (Basel, Switzerland) and cultured in MSCGM medium (Lonza). Cells which underwent 3 to 6 subcultures were used in the experiment.

[4] = tested on: human bone marrow-derived MSCs (hMSCs); settings: 10 mM, two subcultures, 14 days culture, colonies 3 mm or greater
Experimental: Then, the cells were added at a concentration of 5×10^2 cells/well (10 cm dish) to low-glucose DMEM (GE Healthcare Life Sciences) containing 10% FBS, 1% penicillin and streptomycin (Invitrogen), and 1% L-glutamine in a plate, and the plate was incubated under conditions of 37° C. and 5% CO2 for 14 days. The plate was then fixed with 100% methanol, stained with a 1% crystal violet staining solution (Sigma-Aldrich), and the number of colonies was counted under a stereomicroscope. In particular, cell populations of human bone marrow-derived MSCs with a diameter of 3 mm or greater were considered as colonies.

[5] = tested on: VEGF; settings: 10 mM, 48 hours, ST2 cells, vs untreated control (CON)
Experimental: (§1) ST2 cells (3.8×10^5 cells) were added to a 6-well plate under the condition of normal growth medium and cultured overnight. The medium was replaced with low-glucose DMEM medium without FBS and the cells were cultured for 18 hours. Then, the cells were treated with 10 mM sodium acetate (C2) for 48 hours or not treated (CON).
(§2) A cell lysate was obtained from the sample, and total RNA was isolated using TRIzol. The cDNA was synthesized from the total RNA, and the expression levels of mRNAs of VEGF and IL-10 in cells were measured by real-time PCR using primers for VEGF and IL-10 and SYBR green PCR Master Mix (fluorescent material).

[6] = tested on: IL-10; settings: 10 mM, 48 hours, ST2 cells, vs untreated control (CON)
Experimental: as §1, §2

[7] = tested on: hematopoietic progenitor cells (Lin-/Sca1+/c-Kit+, LSK); settings: sodium acetate 4 nmol/kg subcutaneous, blood collected after 10 minutes, vs normal control group
Experimental: Populations of circulating hematopoietic progenitor cells (HPCs), lineage negative, Sca-1 positive, and c-Kit positive (Lin^−/Sca1^+/c-Kit^+, LSK) cells were analyzed by a flow cytometry analyzer.
Monocytes were separated by Ficoll centrifugation. Then, hematopoietic progenitor cells were examined using anti-mouse CD4-FITC (Biolegend, San Diego, Calif.), anti-mouse CD49b-FITC (Biolegend), anti-mouse CD11b-FITC (Biolegend), anti-mouse B220-FITC (Biolegend), anti-mouse Gr-1-FITC (Biolegend), anti-mouse CD8-FITC (Biolegend), anti-mouse Ly-6A/E (Sca-1)-PE (Biolegend), and anti-mouse CD117 (c-Kit)-APC (Biolegend).

[8] = tested on: mouse bone marrow-derived MSCs; settings: 200 mM in drinking water for 7 days, vs drinking water without sodium acetate
Experimental: Each C57BL/6 mouse was fed drinking water with or without sodium acetate (200 mM) for 7 days, and femurs were collected from each mouse. The collected femurs were crushed using a mortar, treated with 0.2% type I collagenase (Worthington), and thereby the bone marrow cells attached to the bones were collected.

[9] = tested on: ST2 cells (mouse bone marrow-derived MSCs); settings: 10 mM, 36 hours treatment, 10 days culture, colonies 1 mm or greater
Experimental: Then, the cells were added to a plate at a concentration of 5.7×10^4 cells/well and cultured under conditions of 37° C. and 5% CO2 for 10 days. The plate was then stained with a 1% crystal violet staining solution (Sigma-Aldrich) and the number of colonies was counted under a stereomicroscope. In particular, cell populations with a diameter of 1 mm or greater were considered as colonies.

| SMILES | invasion (number of cells through Matrigel) [1] | mobility of ST2 cells (number of migrated cells) [2] | mobility of human bone marrow-derived MSCs (hMSCs) [3] | enhancement of colony-forming ability (CFU-F) of hMSCs [4] | increase of expression of VEGF mRNA [5] | increase of expression of IL-10 mRNA [6] | hematopoietic progenitor cells (LSK) in the peripheral blood [7] | increase in frequency of cell population of mouse bone marrow-derived MSCs (CFU-F) [8] | increase in size of cell population of mouse bone marrow-derived MSCs (CFU-F) [8] | colony-forming ability (CFU-F) of mouse bone marrow-derived MSCs [9] |
| --- | --- | --- | --- | --- | --- | --- | --- | --- | --- | --- |
| CC(=O)[O-].[Na+] [sodium acetate] | significantly increased | increase in a manner dependent on the concentration | increased in a manner dependent on the concentration | about 5 fold | about 2.5 fold | about 2.4 fold | enhancement of mobility from the bone marrow to the peripheral blood | about 2 fold | about 2 fold | significantly increased |
| CCCC(=O)[O-].[Na+] [sodium butyrate] |  | increase in a manner dependent on the concentrations |  |  |  |  |  |  |  |  |
| CCC(=O)[O-].[Na+] [sodium propionate] |  | increase in a manner dependent on the concentrations |  |  |  |  |  |  |  | enhancement of a CFU-F-forming ability |
